Laboratory results reported in ChEMBL document CHEMBL1201862, “PubChem BioAssay data set” (2004).
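Five concentrations, 48 hours, 96-well plates. The concentration for 50% growth inhibition is given as GI50.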 The source made the active and inactive calls. Cut-off read from the data, not from the text of the source: active = GI50 up to about 1.1 µM and inactive = higher.

Assays:
Test in all cases: inhibition of tumour cell growth, NCI panel, 48 h
[1] = system: HOP-18
[2] = system: SW-620
[3] = system: HL-60
[4] = system: NCI-H460
[5] = system: OVCAR-3
[6] = system: SF-268
[7] = system: U-251
[8] = system: SR
[9] = system: UO-31
[10] = system: KM-20L2
[11] = system: LXFL 529
[12] = system: M19-MEL
[13] = system: LOX IMVI
[14] = system: A549
[15] = system: SNB-78
[16] = system: RPMI-8226
[17] = system: TK-10
[18] = system: M14
[19] = system: HCT-116
[20] = system: K562
[21] = system: DLD-1
[22] = system: SK-MEL-5
[23] = system: CCRF-CEM
[24] = system: NCI-H23
[25] = system: UACC-62
[26] = system: HOP-92
[27] = system: Malme-3M
[28] = system: ACHN
[29] = system: UACC-257
[30] = system: HCT-15
[31] = system: RXF 393
[32] = system: SNB-19
[33] = system: DMS-114
[34] = system: SF-539
[35] = system: DMS-273
[36] = system: HCC 2998
[37] = system: SK-OV-3
[38] = system: CAKI-1
[39] = system: OVCAR-8
[40] = system: NCI-H522
[41] = system: MOLT-4
[42] = system: HT-29
[43] = system: SF-295
[44] = system: SK-MEL-2
[45] = system: OVCAR-5
[46] = system: HOP-62
[47] = system: NCI-H226
[48] = system: IGROV-1
[49] = system: EKVX
[50] = system: XF498
[51] = system: SN12C
[52] = system: OVCAR-4
[53] = system: KM12
[54] = system: COLO 205
[55] = system: A498
[56] = system: SNB-75
[57] = system: SK-MEL-28
[58] = system: 786-0

In the case of `Cc1c(N(Cc2ccccc2)Cc2ccccc2)nc(S(C)(=O)=O)nc1S(C)(=O)=O`, the GI50 [1] is reported as 4.99 µM (inactive), the GI50 [2] is reported as 1.93 µM (inactive) and the GI50 [3] is reported as 2.09 µM (inactive). For the same molecule, the GI50 [4] was 5.14 µM (inactive), the GI50 [5] was 1.86 µM (inactive) and the GI50 [6] was 1.95 µM (inactive). The GI50 [7] was 2.53 µM (inactive), the GI50 [8] was 1.58 µM (inactive) and the GI50 [9] was 12.1 µM (inactive). The GI50 [10] was 1.74 µM (inactive), the GI50 [11] was 1.91 µM (inactive) and the GI50 [12] was 1.54 µM (inactive). For the same molecule, the GI50 [13] was 1.84 µM (inactive), the GI50 [14] was 15.3 µM (inactive) and the GI50 [15] was 2.2 µM (inactive). For the same molecule, the GI50 [16] was 2.74 µM (inactive), the GI50 [17] was 4.2 µM (inactive) and the GI50 [18] was 2.14 µM (inactive). For the same molecule, the GI50 [19] was 1.66 µM (inactive), the GI50 [20] was 2.08 µM (inactive) and the GI50 [21] was 1.87 µM (inactive). The GI50 [22] was 12 µM (inactive), the GI50 [23] was 2.2 µM (inactive) and the GI50 [24] was 1.72 µM (inactive). The GI50 [25] was 1.71 µM (inactive), the GI50 [26] was 3.56 µM (inactive) and the GI50 [27] was 5.36 µM (inactive). The GI50 [28] was 4.68 µM (inactive), the GI50 [29] was 2.09 µM (inactive) and the GI50 [30] was 2.56 µM. For the same molecule, the GI50 [31] was 1.57 µM (inactive), the GI50 [32] was 13.4 µM (inactive) and the GI50 [33] was 1.82 µM (inactive). The GI50 [34] was 13 µM (inactive), the GI50 [35] was 2.2 µM (inactive) and the GI50 [36] was 1.79 µM (inactive). For the same molecule, the GI50 [37] was 14.4 µM (inactive), the GI50 [38] was 8.07 µM (inactive) and the GI50 [39] was 1.85 µM (inactive). The GI50 [40] was 1.73 µM (inactive), the GI50 [41] was 2.11 µM (inactive) and the GI50 [42] was 1.94 µM (inactive). For the same molecule, the GI50 [43] was 17.7 µM (inactive), the GI50 [44] was 11.9 µM (inactive) and the GI50 [45] was 7.4 µM (inactive). The GI50 [46] was 14.7 µM (inactive), the GI50 [47] was 12.7 µM (inactive) and the GI50 [48] was 1.74 µM (inactive). For the same molecule, the GI50 [49] was 1.53 µM (inactive), the GI50 [50] was 1.73 µM (inactive) and the GI50 [51] was 2.08 µM (inactive).
In the case of `O=c1c2c(nc3n1CCC3)sc1c(O)c(Br)ccc12`, the GI50 [1] is reported as > 100 µM (inactive), the GI50 [2] is reported as 12.5 µM (inactive) and the GI50 [3] is reported as 14.7 µM (inactive). The GI50 [4] was 16.4 µM (inactive), the GI50 [5] was 19.1 µM (inactive) and the GI50 [6] was 60.4 µM (inactive). For the same molecule, the GI50 [7] was 20.2 µM (inactive), the GI50 [8] was 12.1 µM (inactive) and the GI50 [9] was 18.8 µM (inactive). For the same molecule, the GI50 [10] was 13.5 µM (inactive), the GI50 [12] was 16.3 µM (inactive) and the GI50 [13] was 13 µM (inactive). For the same molecule, the GI50 [14] was 15.4 µM (inactive), the GI50 [15] was 33.3 µM (inactive) and the GI50 [52] was 17.7 µM (inactive). The GI50 [16] was 21.3 µM (inactive), the GI50 [17] was 19.1 µM (inactive) and the GI50 [18] was > 100 µM (inactive). For the same molecule, the GI50 [19] was 15.2 µM (inactive), the GI50 [20] was 19.3 µM (inactive) and the GI50 [21] was 27.7 µM (inactive). For the same molecule, the GI50 [22] was 14.5 µM (inactive), the GI50 [23] was 15.5 µM (inactive) and the GI50 [53] was 14.3 µM (inactive). The GI50 [24] was 27 µM (inactive), the GI50 [25] was 17.4 µM (inactive) and the GI50 [54] was 11.8 µM (inactive). The GI50 [26] was > 100 µM (inactive), the GI50 [27] was 17.5 µM (inactive) and the GI50 [55] was 10.5 µM (inactive). The GI50 [28] was 14.6 µM (inactive), the GI50 [29] was 16.6 µM (inactive) and the GI50 [30] was 18.6 µM. The GI50 [31] was 29.9 µM (inactive), the GI50 [32] was 54.7 µM (inactive) and the GI50 [33] was 16.3 µM (inactive). For the same molecule, the GI50 [34] was 15.5 µM (inactive), the GI50 [35] was 14.9 µM (inactive) and the GI50 [36] was 17.1 µM (inactive). For the same molecule, the GI50 [37] was 23.9 µM (inactive), the GI50 [38] was > 100 µM (inactive) and the GI50 [39] was 10.7 µM (inactive). The GI50 [40] was 16 µM (inactive), the GI50 [41] was 11.1 µM (inactive) and the GI50 [42] was 12.5 µM (inactive). The GI50 [43] was 17.3 µM (inactive), the GI50 [44] was 20.7 µM (inactive) and the GI50 [45] was 20.7 µM (inactive). For the same molecule, the GI50 [56] was > 100 µM (inactive), the GI50 [46] was 19.1 µM (inactive) and the GI50 [47] was 19.6 µM (inactive). For the same molecule, the GI50 [48] was 24.1 µM (inactive), the GI50 [57] was 16.4 µM (inactive) and the GI50 [49] was 23.9 µM (inactive). For the same molecule, the GI50 [50] was 21.5 µM (inactive), the GI50 [58] was 17.5 µM (inactive) and the GI50 [51] was 16.4 µM (inactive).
